Measured values taken from ChEMBL document CHEMBL1773003.
Activity calls are given as the source filed them. The calls are words filed in the database; no cut-off is given here.

Key:
[1] = target: Matrix protein 2 (Influenza A virus, UniProt P06821); type: cell-based, Influenza A virus (A/udorn/1972(H3N2)), Oocyte
[2] = target: Matrix protein 2 (Influenza A virus) (UniProt P06821); type: cell-based; conditions: Influenza A virus (A/udorn/1972(H3N2)); Oocyte; 100 uM
[3] = tested on: MDCK; test: Cytotoxicity against MDCK cells after 72 hrs by MTS assay; type: cell-based, Canis lupus familiaris; conditions: dog
[4] = tested on: Influenza A virus; test: Antiviral activity against Influenza A virus (A/Udorn/72) expressing wild-type matrix protein 2 infected in MDCK cells assessed as inhibition of plaque formation at 5 uM measured after 2 days; type: functional, organism-based; conditions: Influenza A virus (A/udorn/1972(H3N2))
[5] = tested on: Influenza A virus; test: Inhibition of Influenza A virus matrix protein 2; conditions: concentration not given here
[6] = Binding affinity to Influenza A virus (A/Udorn/72) transmembrane domain of matrix protein 2 (22 to 46) at pH 7.4 by circular dichroism analysis; parameters: species or system Influenza A virus (A/udorn/1972(H3N2))

Sequence of Matrix protein 2 (Influenza A virus) (P06821 whole entry): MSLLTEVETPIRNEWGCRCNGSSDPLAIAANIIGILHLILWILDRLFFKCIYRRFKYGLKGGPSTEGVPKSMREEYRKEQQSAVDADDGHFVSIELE
Sequence of Matrix protein 2 (P06821 whole entry): as above

SMILES | IC50 [1] [µM] | inhibition [2] [%] | CC50 [3] [µM] | Activity [4] | inhibition [5] [%] | Kd [6] [µM]
NCC12CC3CC(CC1C3)C2 | 7.1 | 97.1 | 357 | Active |  | 
NC12CC3CC(CC(C3)C1)C2 [AMANTADINE] |  | 91 |  | Active | 85 | 
NCC12C3CCC4C3C3C(CCC31)C42 |  | 12.8 | 12 |  |  | 
C1CC2C3C4C5CCC4C24CNCC54C13 |  | 39.7 |  |  |  | 
NC(N)=NCC12CC3CC(CC1C3)C2 | 2.4 |  | 10.5 |  |  | 
CC12CC3CC1(C)CC3(N)C2 |  | 93.6 | > 500 | Active |  | 
CNC12CC3CC(CC(C3)O1)C2 | 22.9 | 91.7 | > 500 |  |  | 
C1C2C1C1C3C4C5C6CC6C4C14CNCC54C23 (stereo unspecified) |  | 86.5 | 61 | Active |  | 232
CNCC12CC3CC(CC1C3)C2 | 17.1 | 92.2 | < 19.4 | Active |  | 
N=C(N)NCC12CC3CC(CC1C3)C2 |  | 97.2 |  | Active |  | 
C1=CC2C3C4C5C=CC4C24CNCC54C13 | 33.5 |  | > 500 |  |  | 74.9
CC(N)C12CC3CC(CC1C3)C2 (racemic) | 12.7 | 93.2 | 256 | Active |  | 
CC(=N)NC12C3CCC4C3C3C(CCC31)C42 |  | 9.3 | > 500 |  |  | 
CCN(CC)C12C3CCC4C3C3C(CCC31)C42 |  | 0 | 119 |  |  | 
CNCC12C3CCC4C3C3C(CCC31)C42 |  | 14.7 | 224 |  |  | 
CC12CC3CC1(C)CC3(CN)C2 | 7.2 | 97.3 | 79 | Active |  | 
NC12C3CCC4C3C3C(CCC31)C42 |  | 4.8 | > 500 |  |  | 
NC12CC3CC(CC(C3)O1)C2 | 29.2 | 88.2 | > 500 |  |  | 91.6
